Data published in US20040097522A1, “Triazolopyrimidines” (priority 2000, published 2004).

Assay: logP determination
Type: physicochemical
Details: for logP: Table 1 logP

| logP | Structure (SMILES) | log P (S) (log P (S), stated in the preparation example) |
| --- | --- | --- |
| 3.85 | C=C(Br)CN(CCCF)c1c(-c2ccc(C(F)(F)F)cc2F)c(Cl)nc2ncnn12 [Example 44] |  |
| 3.92 | C=C(Br)CN(CCCF)c1c(-c2cc(C(F)(F)F)ccc2Cl)c(Cl)nc2ncnn12 [Example 41] |  |
| 2.77 | CN(C)C(=O)CN(CCCF)c1c(-c2cc(C(F)(F)F)ccc2Cl)c(Cl)nc2ncnn12 [Example 2] |  |
| 3.61 | C=C(Cl)CN(CCCF)c1c(-c2cccc3c2OC(F)(F)O3)c(Cl)nc2ncnn12 [Example 55] |  |
| 3.58 | COC(=O)CN(CCCF)c1c(-c2c(Cl)c(F)cc(C(F)(F)F)c2Cl)c(Cl)nc2ncnn12 [Example 12] |  |
| 3.14 | CN(C)C(=O)CN(CCCF)c1c(-c2cc(SC(F)(F)F)ccc2Cl)c(Cl)nc2ncnn12 [Example 6] |  |
| 3.01 | CN(C)C(=O)CN(CCCF)c1c(-c2c(Cl)c(F)cc(C(F)(F)F)c2Cl)c(Cl)nc2ncnn12 [Example 4] |  |
|  | COC(=O)CN(CCCF)c1c(-c2cccc3c2OC(F)(F)O3)c(Cl)nc2ncnn12 [Example 1] | 2.93 |
| 4.27 | C=C(Br)CN(CCCF)c1c(-c2c(Cl)c(F)cc(C(F)(F)F)c2Cl)c(Cl)nc2ncnn12 [Example 43] |  |
| 3.41 | COC(CN(CCCF)c1c(-c2ccc(C(F)(F)F)cc2F)c(Cl)nc2ncnn12)OC [Example 20] |  |
| 3.94 | C=C(Br)CN(CCCF)c1c(-c2ccc(C(F)(F)F)c(F)c2F)c(Cl)nc2ncnn12 [Example 48] |  |
| 3.82 | COC(CN(CCCF)c1c(-c2c(Cl)c(F)cc(C(F)(F)F)c2Cl)c(Cl)nc2ncnn12)OC [Example 19] |  |
| 2.52 | CN(C)C(=O)CN(CCCF)c1c(-c2cccc3c2OC(F)(F)O3)c(Cl)nc2ncnn12 [Example 8] |  |
| 4.04 | CCOC(CN(CCCF)c1c(-c2ccc(C(F)(F)F)cc2F)c(Cl)nc2ncnn12)OCC [Example 28] |  |
| 3.17 | COC(=O)CN(CCCF)c1c(-c2cccc(C(F)(F)F)c2Cl)c(Cl)nc2ncnn12 [Example 15] |  |
| 2.80 | CC(=O)CN(CCCF)c1c(-c2cccc3c2OC(F)(F)O3)c(Cl)nc2ncnn12 [Example 39] |  |
| 2.89 | CN(C)C(=O)CN(CCCF)c1c(-c2cc(C(F)(F)F)ccc2C(F)(F)F)c(Cl)nc2ncnn12 [Example 3] |  |
| 3.07 | CC(=O)CN(CCCF)c1c(-c2cc(C(F)(F)F)ccc2Cl)c(Cl)nc2ncnn12 [Example 33] |  |
| 4.10 | CCOC(CN(CCCF)c1c(-c2cc(C(F)(F)F)ccc2Cl)c(Cl)nc2ncnn12)OCC [Example 25] |  |
| 3.73 | C=C(Br)CN(CCCF)c1c(-c2cccc(C(F)(F)F)c2Cl)c(F)nc2ncnn12 [Example 46] |  |
| 4.16 | CCOC(CN(CCCF)c1c(-c2ccc(C(F)(F)F)c(F)c2F)c(Cl)nc2ncnn12)OCC [Example 32] |  |
| 3.29 | COC(=O)CN(CCCF)c1c(-c2ccc(C(F)(F)F)c(F)c2F)c(Cl)nc2ncnn12 [Example 16] |  |
| 4.19 | C=C(Cl)CN(CCCF)c1c(-c2c(Cl)c(F)cc(C(F)(F)F)c2Cl)c(Cl)nc2ncnn12 [Example 51] |  |
| 3.81 | CCOC(CN(CCCF)c1c(-c2cccc3c2OC(F)(F)O3)c(Cl)nc2ncnn12)OCC [Example 31] |  |
| 3.14 | CC(=O)CN(CCCF)c1c(-c2ccc(C(F)(F)F)c(F)c2F)c(Cl)nc2ncnn12 [Example 40] |  |
| 2.92 | COC(=O)CN(CCCF)c1c(-c2c(F)cc(F)cc2C(F)(F)F)c(Cl)nc2ncnn12 [Example 74] |  |

| logP | Structure (SMILES) | log P (S) (log P (S), stated in the preparation example) |
| --- | --- | --- |
| 3.23 | COC(=O)CN(CCCF)c1c(-c2cc(C(F)(F)F)ccc2Cl)c(Cl)nc2ncnn12 [Example 10] |  |
| 4.45 | CCOC(CN(CCCF)c1c(-c2c(Cl)c(F)cc(C(F)(F)F)c2Cl)c(Cl)nc2ncnn12)OCC [Example 27] |  |
| 4.00 | CCOC(CN(CCCF)c1c(-c2cccc(C(F)(F)F)c2Cl)c(Cl)nc2ncnn12)OCC [Example 30] |  |
| 3.57 | COC(=O)CN(CCCF)c1c(-c2cc(SC(F)(F)F)ccc2Cl)c(Cl)nc2ncnn12 [Example 14] |  |
| 3.55 | COC(CN(CCCF)c1c(-c2ccc(C(F)(F)F)c(F)c2F)c(Cl)nc2ncnn12)OC [Example 24] |  |
| 3.69 | C=C(Br)CN(CCCF)c1c(-c2cccc3c2OC(F)(F)O3)c(Cl)nc2ncnn12 [Example 47] |  |
| 3.01 | CC(=O)CN(CCCF)c1c(-c2ccc(C(F)(F)F)cc2F)c(Cl)nc2ncnn12 [Example 36] |  |
| 3.77 | C=C(Cl)CN(CCCF)c1c(-c2ccc(C(F)(F)F)cc2F)c(Cl)nc2ncnn12 [Example 52] |  |
| 3.77 | C=C(Cl)CN(CCCF)c1c(-c2cc(C(F)(F)F)ccc2C(F)(F)F)c(F)nc2ncnn12 [Example 50] |  |
| 2.71 | CN(C)C(=O)CN(CCCF)c1c(-c2ccc(C(F)(F)F)cc2F)c(Cl)nc2ncnn12 [Example 5] |  |
| 3.24 | COC(CN(CCCF)c1c(-c2cccc3c2OC(F)(F)O3)c(Cl)nc2ncnn12)OC [Example 23] |  |
| 3.66 | C=C(Cl)CN(CCCF)c1c(-c2cccc(C(F)(F)F)c2Cl)c(F)nc2ncnn12 [Example 54] |  |
| 3.84 | C=C(Cl)CN(CCCF)c1c(-c2cc(C(F)(F)F)ccc2Cl)c(Cl)nc2ncnn12 [Example 49] |  |
| 4.47 | CCOC(CN(CCCF)c1c(-c2cc(SC(F)(F)F)ccc2Cl)c(Cl)nc2ncnn12)OCC [Example 29] |  |
| 3.17 | COC(=O)CN(CCCF)c1c(-c2ccc(C(F)(F)F)cc2F)c(Cl)nc2ncnn12 [Example 13] |  |
| 3.54 | COC(CN(CCCF)c1c(-c2cc(C(F)(F)F)ccc2Cl)c(Cl)nc2ncnn12)OC [Example 17] |  |
| 3.86 | C=C(Cl)CN(CCCF)c1c(-c2ccc(C(F)(F)F)c(F)c2F)c(Cl)nc2ncnn12 [Example 56] |  |
| 3.84 | C=C(Br)CN(CCCF)c1c(-c2cc(C(F)(F)F)ccc2C(F)(F)F)c(F)nc2ncnn12 [Example 42] |  |
| 2.86 | CN(C)C(=O)CN(CCCF)c1c(-c2ccc(C(F)(F)F)c(F)c2F)c(Cl)nc2ncnn12 [Example 9] |  |
| 4.36 | C=C(Br)CN(CCCF)c1c(-c2cc(SC(F)(F)F)ccc2Cl)c(Cl)nc2ncnn12 [Example 45] |  |
| 3.42 | CC(=O)CN(CCCF)c1c(-c2cc(SC(F)(F)F)ccc2Cl)c(Cl)nc2ncnn12 [Example 37] |  |
| 4.27 | C=C(Cl)CN(CCCF)c1c(-c2cc(SC(F)(F)F)ccc2Cl)c(Cl)nc2ncnn12 [Example 53] |  |
| 3.22 | COC(CN(CCCF)c1c(-c2c(F)cc(F)cc2C(F)(F)F)c(Cl)nc2ncnn12)OC [Example 73] |  |
| 3.01 | CC(=O)CN(CCCF)c1c(-c2cccc(C(F)(F)F)c2Cl)c(Cl)nc2ncnn12 [Example 38] |  |
| 3.42 | COC(CN(CCCF)c1c(-c2cccc(C(F)(F)F)c2Cl)c(Cl)nc2ncnn12)OC [Example 22] |  |
| 3.90 | COC(CN(CCCF)c1c(-c2cc(SC(F)(F)F)ccc2Cl)c(Cl)nc2ncnn12)OC [Example 21] |  |

| Structure (SMILES) | logP | log P (S) (log P (S), stated in the preparation example) |
| --- | --- | --- |
| CN(C)C(=O)CN(CCCF)c1c(-c2cccc(C(F)(F)F)c2Cl)c(Cl)nc2ncnn12 [Example 7] | 2.71 |  |
